According to US8058258B2, “Methods for cancer therapy and stem cell modulation” (Agency for Science, Technology and Research, priority 2006, dated 2011):

Experiments:
MCF-7 cells [1] = assay: Cell death / apoptosis by PI staining and flow cytometry; type: cell-based, human; settings: 5 μM; for cell death: PI staining and flow cytometry, cell line not named in the sentence (FIG. 3A)
Method: FIG. 3A depicts the detection of cell death of a variety of cancer cells upon exposure to 3-deazaneplanocin (DZNep) compared to untreated controls cells (DMSO=dimethyl sulfoxide). Breast cancer MCF-7 and MB-468 cells, colorectal HCT116, RKO and SW480 cells were treated with 5 μm 3-deazaneplanocin for 48 and 72 h, and cell death was detected by means of propodium iodide (PI) staining and flow cytometry analysis. Shown is the average of three independent experiments.
Cell lines used in these examples were purchased from the American Type Culture Collection (Manassas, Va.). Cells were maintained in DMEM supplemented with 10% fetal bovine serum with glutamine, penicillin, and streptomycin. For drug treatment, cells were seeded the day before the drug treatment. Cells were treated with 5 μM 3-Deazaneplanocin A or 2 μM 5-aza-2′-deoxycytidine (5-AzaC; Sigma) for 72 hours and trichostatin A (TSA; Sigma) at 100 nM for 24 hours. For co-treatment of cells with 5-AzaC and TSA, 5-Aza was added for 48 hours and followed by TSA for 24 hours.
Cells were trypsinised and washed with PBS and fixed in 70% ethanol and processed for propidium iodide staining and FACS analysis. For the caspase 3 activity assay and mitochondrial membrane potential detection, cells were stained with anti-active caspase 3 and JC-1, respectively, according to the manufacturer's instructions (BD Bioscience).
It was observed that 3-deazaneplanocin at 5 μM could induce 25% cell death at 48 hours and 45% of cell death at 72 hours, as determined by propodium iodide (PI) staining and flow cytometry analysis (FIG. 3A).
(§1) To determine whether 3-deazaneplanocin preferentially induces apoptosis in cancer cells, the apoptosis induction between MCF-7 cells and the non-cancerous breast epithelial MCF10A cells was compared for various periods of time. […] In addition, normal primary colon epithelial CC33D cells, like MCF10A cells, were also resistant to 3-deazaneplanocin treatment compared to colorectal cancer HCT116 cell, as evaluated by microscopy examination (FIGS. 3G & 3H).

CC33D cells = assay: Microscopy examination of cell death in primary colon epithelial cells; type: cell-based; settings: normal primary colon epithelial CC33D cells compared to HCT116
Source text: as §1

MCF-7 cells [2] = assay: Microarray gene expression analysis (Illumina BeadChip) in MCF-7 cells; type: cell-based, human
Method: The Smartpool siRNA duplexes of selected PRC2 targets and the non-targeting control were purchased from Dharmacon (Lafayett, Colo.). […] Cells were transfected with 50 nM final concentration of siRNA duplexes using Lipofectamine 2000 (Invitrogen) following the manufacturer's instructions.
The effects on gene expression were analysed using an Illumina Gene Expression BeadChip. […] To be inclusive for the subsequent analysis, all 1402 genes were considered to be potential PRC2 target genes.
To identify the PRC2 targets specifically repressed in breast cancer cells, the expression profiles of the 140 putative PRC2 target genes in MCF-7 cells and MCF10A cells were compared by gene clustering analysis (FIG. 4C).

[3] = system: PRC2 target genes in MCF-7, MB-468, SK-BR-3, T47D, MCF10A, MB-231, BT549; assay: Array analysis of PRC2 targets in sensitive and resistant breast cancer cell lines; type: cell-based
Method: FIG. 6B depicts the results of array analysis in these breast cancer cell lines (MCF-7, MB-468, SK-BR-3 and T47D sensitive ? MCF10A, MB-231, BT549 resistant) before and after 3-deazaneplanocin treatment. […] Genes marked in bold are highly expressed in resistant cell lines relative to sensitive cell lines.
Total RNA was isolated from cell lines using Trizol (Invitrogen) and was converted to cDNA using an RNA Amplification kit (Ambion). The microarray hybridisation was performed using the Illumina Gene Expression BeadChip (Illumina) and data analysis was performed using GeneSpring software from Agilent Technologies. Gene expression of normal and primary breast tumor samples was performed using Affymetrix U133A GeneChips (Affymetrix, Santa Clara, Calif.) following the manufacturer's instructions. Gene expression data from individual arrays were normalized by median centering and average linkage hierarchical clustering was done using Cluster and Treeview softwares (http://rana.lbl.gov/EisenSoftware.htm). Quantitative real-time PCR was performed on a PRISM 7900 sequenced detector (Applied Biosystems) using TaqMan probes (Applied Biosystems). Samples were normalized to the levels of 18S ribosomal RNA.
To extend the observation seen in MCF-7 cells, additional breast cancer cell lines were screened, including MB-468, SK-BR-3, MB-231, T47D and BT549. […] To identify the PRC2 target genes associated with the cellular sensitivity to 3-deazaneplanocin, the array analysis was performed in these breast cancer cell lines before and after 3-deazaneplanocin treatment and the expression of the 47 identified PRC2 targets profiled. It was reasoned that some the PRC2 target genes might be differentially expressed between the sensitive and resistant cell lines, which might confer the distinct sensitivity to 3-deazaneplanocin. […] Both the real time and conventional RT-PCR analysis of the 4 gene set confirmed the array data (FIGS. 6D & 6E). […]

[4] = explored for antiviral treatment; cited from earlier work

In the case of Nc1nccc2c1ncn2C1C=C(CO)C(O)C1O (stereo not shown) [3-deazaneplanocin, 5-(4-amino-1H-imidazo[4,5-c]pyridin-1-yl)-3-(hydroxymethyl)-3-cyclopentene-1,2-diol], the cell death (MCF-7 cells [1]; 48 hours) is reported as 25%, the cell death (MCF-7 cells [1]; 72 hours) is reported as 45% and the “apoptosis induction over various periods of time” value (MCF-7 cells [1]; MCF-7 cells, FACS) is reported as “progressive and marked apoptosis”. For the same compound, the “sensitivity to treatment, microscopy examination” value (CC33D cells) was “resistant”, the “expression of the 47 PRC2 target genes repressed in MCF-7 relative to MCF10A” value (MCF-7 cells [2]) was “re-expression” and the “number of genes upregulated ≧2-fold” value (MCF-7 cells [2]; 72 h) was 750 genes. For the same compound, the “induction of FBXO32, LAMB3, PLAU, and PPP1R15A” value ([3]; four sensitive cell lines (MCF-7, MB-468, SK-BR-3, T47D)) was “commonly induced”, the “induction of the same PRC2 target genes in resistant cell lines” value ([3]; resistant cell lines (MCF10A, MB-231, BT549)) was “did not undergo marked further induction” and the “induction of TGFBI, IGFBP3, TNS3 and KRT17” value ([3]; sensitive cell lines (MCF-7, MB-468, SK-BR-3, T47D)) was “induced in 3 out 4 sensitive cell lines”. The toxicity in vivo [4] was “minimal toxicity”.
